How the values were obtained:
Assay type in all cases: in vivo
Ctenocephalides felis = Ctenocephalides felis oral test; details: application rate 100 ppm, after 2 days
Description: Ctenocephalides felis—Oral Test Solvent: dimethyl sulfoxide To produce a suitable active ingredient formulation, 10 mg of active ingredient are mixed with 0.5 ml of dimethyl sulfoxide. Dilution with citrated cattle blood gives the desired concentration. About 20 unfed adult cat fleas (Ctenocephalides felis) are placed into a chamber which is closed at the top and bottom with gauze. A metal cylinder whose bottom end is closed with parafilm is placed onto the chamber. The cylinder contains the blood/active ingredient formulation, which can be imbibed by the fleas through the parafilm membrane. After 2 days, the kill in % is determined. 100% means that all of the fleas have been killed; 0% means that none of the fleas have been killed.

Lucilia cuprina = Lucilia cuprina test; details: after 2 days, L1 larvae
Description: Lucilia cuprina Test Solvent: dimethyl sulfoxide To produce a suitable active ingredient formulation, 10 mg of active ingredient are mixed with 0.5 ml of dimethyl sulfoxide, and the concentrate is diluted with water to the desired concentration. About 20 L1 larvae of the Australian sheep blowfly (Lucilia cuprina) are transferred into a test vessel containing minced horsemeat and the active ingredient formulation of the desired concentration. After 2 days, the kill in % is determined. 100% means that all the larvae have been killed; 0% means that no larvae have been killed.

Meloidogyne incognita = Meloidogyne incognita test; details: application rate 20 ppm, after 14 days, formation of galls on lettuce
Description: Meloidogyne incognita Test Solvent: 125.0 parts by weight of acetone To produce a suitable active ingredient formulation, 1 part by weight of active compound is mixed with the stated amount of solvent and the concentrate is diluted to the desired concentration with water. Vessels are filled with sand, active compound solution, an egg/larvae suspension of the southern root-knot nematode (Meloidogyne incognita) and lettuce seeds. The lettuce seeds germinate and the plants develop. The galls develop on the roots. After 14 days, the nematicidal efficacy in % is determined by the formation of galls. 100% means that no galls were found; 0% means that the number of galls on the treated plants corresponds to the untreated control.

Myzus persicae [1] = assay: Myzus persicae oral test; details: 120 h, application rate 4 ppm, after 5 days, read-out: efficacy
Description: Myzus persicae—Oral Test Solvent: 100 parts by weight of acetone To produce a suitable active ingredient formulation, 1 part by weight of active ingredient is dissolved with the stated parts by weight of solvent and made up to the desired concentration with water. 50 μl of the active ingredient formulation are transferred into microtitre plates and made up to a final volume of 200 μl with 150 μl of IPL41 insect medium (33%+15% sugar). Subsequently, the plates are sealed with parafilm, which a mixed population of green peach aphids (Myzus persicae) within a second microtitre plate is able to puncture and imbibe the solution. After 5 days, the efficacy in % is determined. 100% means that all the aphids have been killed; 0% means that no aphids have been killed.

Myzus persicae [2] = assay: Myzus persicae spray test (MYZUPE), Chinese cabbage leaf discs; details: foliar, 120 h
Description: Myzus persicae—Spray Test [table] To produce a suitable active ingredient formulation, 1 part by weight of active ingredient is dissolved with the specified parts by weight of solvent and made up to the desired concentration with water containing an emulsifier concentration of 1000 ppm. To produce further test concentrations, the formulation is diluted with emulsifier-containing water. Discs of Chinese cabbage leaves (Brassica pekinensis) infested by all stages of the green peach aphid (Myzus persicae) are sprayed with an active ingredient formulation of the desired concentration. After 5 days, the efficacy in % is determined. 100% means that all the aphids have been killed; 0% means that no aphids have been killed. Myzus persicae—Spray Test (MYZUPE) [table] To produce a suitable active ingredient formulation, 1 part by weight of active ingredient is dissolved with the specified parts by weight of solvent and made up to the desired concentration with water containing an emulsifier concentration of 1000 ppm. To produce further test concentrations, the formulation is diluted with emulsifier-containing water. Discs of Chinese cabbage leaves (Brassica pekinensis) infested by all stages of the green peach aphid (Myzus persicae) are sprayed with an active ingredient formulation of the desired concentration. After the desired period of time, the efficacy in % is determined. 100% means that all the aphids have been killed; 0% means that no aphids have been killed.

Phaedon cochleariae [3] = assay: Phaedon cochleariae spray test, Chinese cabbage leaf discs; details: foliar, 168 h, application rate 100 g/ha, after 7 days, larvae, read-out: efficacy
Description: Phaedon cochleariae—Spray Test
(§1) To produce a suitable active ingredient formulation, 1 part by weight of active ingredient is dissolved with the specified parts by weight of solvent and made up to the desired concentration with water containing an emulsifier concentration of 1000 ppm. To produce further test concentrations, the formulation is diluted with emulsifier-containing water.
After 7 days, the efficacy in % is determined. 100% means that all the beetle larvae have been killed; 0% means that no beetle larvae have been killed.

Spodoptera frugiperda [4] = assay: Spodoptera frugiperda spray test, maize leaf discs; details: application rate 100 g/ha, after 7 days, caterpillars
Description: Spodoptera frugiperda—Spray Test [table] To produce a suitable active ingredient formulation, 1 part by weight of active ingredient is dissolved with the specified parts by weight of solvent and made up to the desired concentration with water containing an emulsifier concentration of 1000 ppm. To produce further test concentrations, the formulation is diluted with emulsifier-containing water. Leaf discs of maize (Zea mays) are sprayed with an active ingredient formulation of the desired concentration and, after drying, populated with caterpillars of the armyworm (Spodoptera frugiperda). After 7 days, the efficacy in % is determined. 100% means that all the caterpillars have been killed; 0% means that no caterpillar has been killed.

Nilaparvata lugens = Nilaparvata lugens spray test (NILALU); details: 96 h, 500 g of ai/ha, 4 dat, read-out: % efficacy
Description: Nilaparvata lugens—Spray Test (NILALU)
as §1, with “water. If the addition of ammonium salts or/and penetrants is required, these are each added in a concentration of 1000 ppm to the formulation solution.” for “water.”
Rice plants (Oryza sativa) are sprayed with an active ingredient formulation of the desired concentration and then populated with larvae of the brown planthopper (Nilaparvata lugens).
[…], the efficacy in % is determined. 100% means that all of the planthoppers have been killed; 0% means that none of the planthoppers have been killed.

Spodoptera frugiperda [5] = assay: Spodoptera frugiperda drench test (SPODFR D); details: soil, 336 h, 14 dat, read-out: % efficacy
Description: Spodoptera frugiperda—Drench Test (SPODFR D) [table] To produce a suitable active ingredient formulation, 1 part by weight of active ingredient is mixed with the specified amounts of solvent and emulsifier, and the concentrate is diluted with water to the desired concentration, it being necessary to take into account the volume of soil which is drenched. It should be ensured that a concentration of 40 ppm of emulsifier in the soil is not exceeded. To produce further test concentrations, water is used for dilution. Maize plants (Zea mays) in pots of soil are watered with an active ingredient formulation of the desired concentration and infected with caterpillars of the armyworm (Spodoptera frugiperda). After the desired time, the kill in % is determined. 100% means that all caterpillars have been killed; 0% means that none of the caterpillars have been killed.

Phaedon cochleariae [6] = assay: Phaedon cochleariae spray test (PHAECO), cabbage leaves; details: 168 h, 7 dat, read-out: % efficacy
Description: Phaedon cochleariae—Spray Test (PHAECO)
Solvent: 14 parts by weight of dimethylformamide
Emulsifier: alkylaryl polyglycol ether
as §1, with “water. If the addition of ammonium salts or/and penetrants is required, these are each added in a concentration of 1000 ppm to the formulation solution.” for “water.”
Cabbage leaves (Brassica oleracea) are sprayed with an active ingredient formulation of the desired concentration and populated with larvae of the mustard beetle (Phaedon cochleariae).
After the desired time, the kill in % is determined. 100% means that all the beetle larvae have been killed; 0% means that no beetle larvae have been killed.

**Q.** How did the “efficacy (kill)” value (Ctenocephalides felis) turn out when `CCS(=O)(=O)c1ccc(-n2ncn(-c3ccc(Cl)cc3)c2=O)nc1-c1nc2cc(C(F)(F)F)nc(C)c2n1C` [Example I-001] was run?
**A.** The value was 100%.

**Q.** What about the “efficacy (kill)” value (Lucilia cuprina; application rate 20 ppm) of the same molecule?
**A.** Its value is 100%.

**Q.** What about the “efficacy (kill)” value (Lucilia cuprina; application rate 100 ppm) of the same molecule?
**A.** The value was 100%.

**Q.** What about the nematicidal efficacy (Meloidogyne incognita) of the same molecule?
**A.** The nematicidal efficacy was 90%.

**Q.** What about the pest or weed control at 4 ppm (Myzus persicae [1]) of the same molecule?
**A.** Its pest or weed control at 4 ppm is 90%.

**Q.** What about the Emax at 20 g/ha (Myzus persicae [2]; MYZUPE, 20 g of ai/ha, 5 dat, read-out: % efficacy) of the same molecule?
**A.** The Emax at 20 g/ha was 90%.

**Q.** And the Emax at 100 g/ha (Myzus persicae [2]; MYZUPE, 100 g of ai/ha, 5 dat, read-out: % efficacy)?
**A.** Its Emax at 100 g/ha is 90%.

**Q.** And the pest or weed control at 20 g/ha (Myzus persicae [2]; application rate 20 g/ha, after 5 days, read-out: efficacy)?
**A.** The pest or weed control at 20 g/ha was 90%.

**Q.** And the pest or weed control at 100 g/ha (Myzus persicae [2]; application rate 100 g/ha, after 5 days, read-out: efficacy)?
**A.** Its pest or weed control at 100 g/ha is 90%.

**Q.** What about the pest or weed control at 100 g/ha (Phaedon cochleariae [3]) of the same molecule?
**A.** Its pest or weed control at 100 g/ha is 100%.

**Q.** And the efficacy (Spodoptera frugiperda [4])?
**A.** The efficacy was 100%.

**Q.** What about the Emax at 500 g/ha (Nilaparvata lugens) of the same molecule?
**A.** Its Emax at 500 g/ha is 60%.

**Q.** And the Emax at 20 ppm (Spodoptera frugiperda [5])?
**A.** The Emax at 20 ppm was 60%.

**Q.** And the Emax at 0.8 ppm (Phaedon cochleariae [6])?
**A.** The Emax at 0.8 ppm was 100%.

From patent publication US20200236940A1, “2-(HET)ARYL-SUBSTITUTED FUSED HETEROCYCLE DERIVATIVES AS PESTICIDES” (Bayer Aktiengesellschaft, priority 2017, published 2020)
